{
  "source": "paper PMC8254048",
  "about": "“An interdomain hydrogen bond in the Rag GTPases maintains stable mTORC1 signaling in sensing amino acids” (The Journal of Biological Chemistry, 2021)",
  "key": {"[1]": {"target": "T1, RagA–RagC GTPase heterodimer (Rag GTPases) (Homo sapiens, UniProt Q7L523+Q9HB90, Q7L523:T210A)", "T1 construct": "gene RRAGA; RagA-RagC heterodimer coexpressed in E. coli BL21(DE3); nucleotide stripped with EDTA, gel filtration", "T1 sequence (Q7L523 whole entry T210A)": "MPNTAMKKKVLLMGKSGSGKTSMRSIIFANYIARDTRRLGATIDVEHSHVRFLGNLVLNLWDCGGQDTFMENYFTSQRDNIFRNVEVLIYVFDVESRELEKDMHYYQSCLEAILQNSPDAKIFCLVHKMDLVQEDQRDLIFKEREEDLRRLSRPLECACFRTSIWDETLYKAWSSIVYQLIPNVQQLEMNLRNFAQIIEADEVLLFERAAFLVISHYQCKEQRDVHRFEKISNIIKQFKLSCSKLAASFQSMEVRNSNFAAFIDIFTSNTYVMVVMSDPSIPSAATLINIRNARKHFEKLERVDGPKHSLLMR", "T1 sequence (Q9HB90 whole entry)": "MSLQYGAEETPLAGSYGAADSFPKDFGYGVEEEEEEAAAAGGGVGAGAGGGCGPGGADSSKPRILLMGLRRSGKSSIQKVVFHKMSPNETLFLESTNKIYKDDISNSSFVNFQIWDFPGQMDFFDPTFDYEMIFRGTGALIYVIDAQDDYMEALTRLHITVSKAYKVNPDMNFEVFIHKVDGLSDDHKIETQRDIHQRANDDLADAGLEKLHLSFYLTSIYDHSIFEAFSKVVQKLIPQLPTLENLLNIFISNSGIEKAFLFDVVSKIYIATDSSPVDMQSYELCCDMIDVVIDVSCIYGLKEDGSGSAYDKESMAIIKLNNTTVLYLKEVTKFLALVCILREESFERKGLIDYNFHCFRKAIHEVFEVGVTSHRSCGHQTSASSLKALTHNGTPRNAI", "assay": "half-site GTP hydrolysis after nucleotide preloading", "assay_type": "biochemical", "conditions": "1.2 molar equivalents prebound, labelled GTP added; pH 7.4, 2 mM MgCl2, 25 °C; stimulates hydrolysis on second subunit"}, "[2]": {"target": "T2, RagA–RagC GTPase heterodimer (Rag GTPases) (Homo sapiens, UniProt Q7L523+Q9HB90, Q9HB90:S266A)", "T2 construct": "gene RRAGA; RagA-RagC heterodimer coexpressed in E. coli BL21(DE3); nucleotide stripped with EDTA, gel filtration", "T2 sequence (Q7L523 whole entry)": "as the sequence (Q7L523 whole entry T210A) above, with A210T counted along it", "T2 sequence (Q9HB90 whole entry S266A)": "as the sequence (Q9HB90 whole entry) above, with S266A counted along it", "assay": "half-site GTP hydrolysis after nucleotide preloading", "assay_type": "biochemical", "conditions": "1.2 molar equivalents prebound, labelled GTP added; pH 7.4, 2 mM MgCl2, 25 °C; stimulates hydrolysis on second subunit"}},
  "data": [
    {"smiles": "Nc1nc2c(ncn2[C@@H]2O[C@H](COP(=O)(O)OP(=O)(O)NP(=O)(O)O)[C@@H](O)[C@H]2O)c(=O)[nH]1", "note": "[GppNHp]", "values": [
      {"measurement": "half-site GTP hydrolysis after nucleotide preloading", "setting": "[1]", "result": "prebound GTP or GppNHp stimulated hydrolysis of the later-bound GTP to a much higher level"},
      {"measurement": "half-site GTP hydrolysis after nucleotide preloading", "setting": "[2]", "result": "prebound GTP or GppNHp stimulated hydrolysis of the later-bound GTP to a much higher level"}
    ]}
  ]
}
